Key:
Assay in all cases: Kinase profiling
Format in all cases: biochemical
MEK2 = target: T1, MEK2 (Homo sapiens, UniProt P36507)
T1 construct: purchased ProQinase (Freiburg, Germany)
Method: (§1) The analysis was performed by ProQinase (Freiburg, Germany).

FRK = target: T2, FRK (Homo sapiens, UniProt P42685)
T2 construct: purchased ProQinase (Freiburg, Germany)
Method: as §1

PRKX = target: T3, PRKX (Homo sapiens, UniProt P51817)
T3 construct: purchased ProQinase (Freiburg, Germany)
T3 sequence (P51817 1-358): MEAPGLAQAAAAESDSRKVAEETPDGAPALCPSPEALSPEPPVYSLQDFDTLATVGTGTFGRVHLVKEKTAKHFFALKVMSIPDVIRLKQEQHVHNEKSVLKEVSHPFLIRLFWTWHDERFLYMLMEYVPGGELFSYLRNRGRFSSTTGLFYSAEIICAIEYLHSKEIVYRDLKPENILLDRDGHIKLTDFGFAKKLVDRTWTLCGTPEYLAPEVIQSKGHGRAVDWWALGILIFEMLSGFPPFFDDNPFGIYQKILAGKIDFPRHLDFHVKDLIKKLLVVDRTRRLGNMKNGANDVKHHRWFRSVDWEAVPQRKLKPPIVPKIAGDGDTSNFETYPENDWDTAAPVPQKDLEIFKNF
Method: as §1

CSF1R = target: T4, CSF1R (Homo sapiens, UniProt P07333)
T4 construct: purchased ProQinase (Freiburg, Germany)
T4 sequence (P07333 20-972): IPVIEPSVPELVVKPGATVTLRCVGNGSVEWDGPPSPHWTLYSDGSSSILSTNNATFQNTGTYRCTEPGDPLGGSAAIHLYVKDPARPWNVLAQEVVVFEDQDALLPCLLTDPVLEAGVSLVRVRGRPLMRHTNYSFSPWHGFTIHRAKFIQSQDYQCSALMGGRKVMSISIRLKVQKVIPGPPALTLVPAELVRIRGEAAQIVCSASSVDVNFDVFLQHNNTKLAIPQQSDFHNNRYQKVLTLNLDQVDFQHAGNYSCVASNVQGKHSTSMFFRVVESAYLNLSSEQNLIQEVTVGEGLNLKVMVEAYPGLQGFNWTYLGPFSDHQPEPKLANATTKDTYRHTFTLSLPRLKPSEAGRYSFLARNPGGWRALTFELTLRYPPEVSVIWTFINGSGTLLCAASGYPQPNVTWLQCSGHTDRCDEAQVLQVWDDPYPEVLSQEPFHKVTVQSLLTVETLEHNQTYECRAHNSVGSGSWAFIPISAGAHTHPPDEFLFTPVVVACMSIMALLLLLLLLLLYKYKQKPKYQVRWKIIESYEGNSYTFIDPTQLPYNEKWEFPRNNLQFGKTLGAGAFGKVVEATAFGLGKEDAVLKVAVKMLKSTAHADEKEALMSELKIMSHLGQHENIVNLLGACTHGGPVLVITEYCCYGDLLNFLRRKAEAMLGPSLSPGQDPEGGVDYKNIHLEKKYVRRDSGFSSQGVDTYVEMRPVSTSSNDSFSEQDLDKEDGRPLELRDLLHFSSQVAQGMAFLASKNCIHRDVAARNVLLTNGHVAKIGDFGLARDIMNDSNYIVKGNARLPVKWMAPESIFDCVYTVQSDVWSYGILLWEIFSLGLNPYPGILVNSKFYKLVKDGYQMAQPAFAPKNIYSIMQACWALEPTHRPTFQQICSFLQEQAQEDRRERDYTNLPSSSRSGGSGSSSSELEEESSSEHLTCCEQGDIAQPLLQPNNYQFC
Method: as §1

MST4 = target: T5, MST4 (Homo sapiens, UniProt Q9P289)
T5 construct: purchased ProQinase (Freiburg, Germany)
T5 sequence (Q9P289 whole entry): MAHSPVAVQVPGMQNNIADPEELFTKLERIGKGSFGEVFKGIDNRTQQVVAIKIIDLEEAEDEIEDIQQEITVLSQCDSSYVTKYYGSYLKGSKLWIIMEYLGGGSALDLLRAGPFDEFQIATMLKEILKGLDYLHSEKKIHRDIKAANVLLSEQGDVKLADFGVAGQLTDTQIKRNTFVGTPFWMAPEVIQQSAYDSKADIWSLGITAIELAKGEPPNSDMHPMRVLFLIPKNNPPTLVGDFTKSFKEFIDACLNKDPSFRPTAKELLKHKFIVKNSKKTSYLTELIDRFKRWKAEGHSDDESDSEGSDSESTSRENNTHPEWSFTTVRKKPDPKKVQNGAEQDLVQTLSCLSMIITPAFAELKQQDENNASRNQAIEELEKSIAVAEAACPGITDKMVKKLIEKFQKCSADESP
Method: as §1

PKCgamma = target: T6, PKCgamma (Homo sapiens, UniProt P05129)
T6 construct: purchased ProQinase (Freiburg, Germany)
Method: as §1

MST2 = target: T7, MST2 (Homo sapiens, UniProt Q13188)
T7 construct: purchased ProQinase (Freiburg, Germany)
T7 sequence (Q13188 1-491): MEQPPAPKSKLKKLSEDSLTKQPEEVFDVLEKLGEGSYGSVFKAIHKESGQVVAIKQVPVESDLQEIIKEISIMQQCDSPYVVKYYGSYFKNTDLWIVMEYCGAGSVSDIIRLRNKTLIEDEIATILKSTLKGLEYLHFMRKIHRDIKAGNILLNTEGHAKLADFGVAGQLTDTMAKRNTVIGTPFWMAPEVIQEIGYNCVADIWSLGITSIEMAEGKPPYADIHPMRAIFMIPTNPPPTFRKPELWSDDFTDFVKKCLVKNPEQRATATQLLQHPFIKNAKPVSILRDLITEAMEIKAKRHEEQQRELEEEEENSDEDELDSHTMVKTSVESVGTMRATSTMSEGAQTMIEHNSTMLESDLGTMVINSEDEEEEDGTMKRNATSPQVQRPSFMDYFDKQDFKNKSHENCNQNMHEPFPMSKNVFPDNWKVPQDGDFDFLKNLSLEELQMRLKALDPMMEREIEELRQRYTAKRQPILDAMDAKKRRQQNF
Method: as §1

JAK3 = target: T8, JAK3 (Homo sapiens, UniProt P52333)
T8 construct: purchased ProQinase (Freiburg, Germany)
T8 sequence (P52333 1-1124): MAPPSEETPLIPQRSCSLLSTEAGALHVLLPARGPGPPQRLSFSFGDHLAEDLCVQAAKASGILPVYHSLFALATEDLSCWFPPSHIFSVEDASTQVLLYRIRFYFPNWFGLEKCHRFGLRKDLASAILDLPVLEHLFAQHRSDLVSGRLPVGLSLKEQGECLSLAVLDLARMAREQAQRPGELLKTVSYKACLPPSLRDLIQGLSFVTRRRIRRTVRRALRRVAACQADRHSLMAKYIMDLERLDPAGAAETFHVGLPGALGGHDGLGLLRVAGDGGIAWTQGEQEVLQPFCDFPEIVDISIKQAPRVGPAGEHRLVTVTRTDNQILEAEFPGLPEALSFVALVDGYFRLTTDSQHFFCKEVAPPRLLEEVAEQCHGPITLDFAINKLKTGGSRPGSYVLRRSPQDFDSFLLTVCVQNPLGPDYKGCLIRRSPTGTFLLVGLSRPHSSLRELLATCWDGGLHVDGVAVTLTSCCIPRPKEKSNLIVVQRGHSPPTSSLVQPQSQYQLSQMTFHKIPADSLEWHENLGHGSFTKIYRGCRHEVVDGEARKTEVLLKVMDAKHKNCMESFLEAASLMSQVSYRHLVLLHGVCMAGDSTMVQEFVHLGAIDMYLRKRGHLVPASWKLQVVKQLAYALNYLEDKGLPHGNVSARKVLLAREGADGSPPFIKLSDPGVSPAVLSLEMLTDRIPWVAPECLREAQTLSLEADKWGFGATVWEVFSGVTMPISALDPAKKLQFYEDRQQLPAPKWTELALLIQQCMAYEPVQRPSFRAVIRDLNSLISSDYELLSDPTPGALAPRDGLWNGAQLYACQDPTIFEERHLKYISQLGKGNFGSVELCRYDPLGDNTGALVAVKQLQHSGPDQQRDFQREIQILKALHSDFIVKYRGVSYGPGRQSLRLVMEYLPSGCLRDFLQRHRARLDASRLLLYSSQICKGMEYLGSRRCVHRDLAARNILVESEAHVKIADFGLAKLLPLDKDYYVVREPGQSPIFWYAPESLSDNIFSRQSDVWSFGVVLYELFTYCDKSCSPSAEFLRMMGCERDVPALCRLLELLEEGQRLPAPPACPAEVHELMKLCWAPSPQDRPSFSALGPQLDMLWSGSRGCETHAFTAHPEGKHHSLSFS
Method: as §1

T1 sequence (P36507 whole entry): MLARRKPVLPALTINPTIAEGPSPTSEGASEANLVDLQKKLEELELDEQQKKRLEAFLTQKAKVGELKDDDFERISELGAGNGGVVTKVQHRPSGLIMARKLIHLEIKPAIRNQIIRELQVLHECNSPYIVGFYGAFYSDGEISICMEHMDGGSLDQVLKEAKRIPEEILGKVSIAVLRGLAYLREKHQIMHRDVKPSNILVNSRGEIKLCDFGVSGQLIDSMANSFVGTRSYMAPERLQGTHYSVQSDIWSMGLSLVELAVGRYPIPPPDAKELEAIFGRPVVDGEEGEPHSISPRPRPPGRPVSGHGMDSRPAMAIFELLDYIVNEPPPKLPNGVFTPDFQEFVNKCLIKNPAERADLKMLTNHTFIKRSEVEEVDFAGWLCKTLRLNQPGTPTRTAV
T2 sequence (P42685 whole entry): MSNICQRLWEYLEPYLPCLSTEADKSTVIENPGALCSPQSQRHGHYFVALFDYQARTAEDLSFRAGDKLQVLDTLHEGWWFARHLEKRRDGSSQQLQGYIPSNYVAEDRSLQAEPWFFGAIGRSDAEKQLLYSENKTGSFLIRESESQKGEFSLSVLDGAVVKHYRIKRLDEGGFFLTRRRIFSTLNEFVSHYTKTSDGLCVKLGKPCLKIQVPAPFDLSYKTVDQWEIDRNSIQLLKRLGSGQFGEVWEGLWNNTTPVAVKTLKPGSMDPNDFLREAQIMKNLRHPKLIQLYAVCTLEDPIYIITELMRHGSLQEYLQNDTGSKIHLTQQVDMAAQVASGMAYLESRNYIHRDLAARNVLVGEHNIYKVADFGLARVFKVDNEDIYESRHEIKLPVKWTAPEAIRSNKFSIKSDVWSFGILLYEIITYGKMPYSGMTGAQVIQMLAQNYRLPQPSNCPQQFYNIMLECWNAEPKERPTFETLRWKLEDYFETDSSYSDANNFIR

Structure (SMILES)	Residual activity (MEK2; 1.0E-05 M)	Residual activity (MEK2; 1.0E-06 M)	Residual activity (FRK; 1.0E-05 M)	Residual activity (FRK; 1.0E-06 M)	Residual activity (PRKX; 1.0E-05 M)	Residual activity (PRKX; 1.0E-06 M)	Residual activity (CSF1R; 1.0E-05 M)	Residual activity (CSF1R; 1.0E-06 M)	Residual activity (MST4; 1.0E-05 M)	Residual activity (MST4; 1.0E-06 M)	Residual activity (PKCgamma; 1.0E-05 M)	Residual activity (PKCgamma; 1.0E-06 M)	Residual activity (MST2; 1.0E-05 M)	Residual activity (MST2; 1.0E-06 M)	Residual activity (JAK3; 1.0E-05 M)	Residual activity (JAK3; 1.0E-06 M)
O=C(Cc1ccccc1)Nc1ccc(F)c(Nc2ccc3c(c2)CCCCC3=O)c1 [Compound 100]	88 % of control	102 % of control	104 % of control	107 % of control	88 % of control	102 % of control	96 % of control	100 % of control	82 % of control	90 % of control	78 % of control	77 % of control	82 % of control	94 % of control	75 % of control	80 % of control
O=C(Nc1ccc(F)c(Nc2ccc3c(c2)CCCCC3=O)c1)c1cccc(F)c1 [Compound 109]	89 % of control	100 % of control	102 % of control	107 % of control	85 % of control	95 % of control	94 % of control	103 % of control	80 % of control	92 % of control	63 % of control	81 % of control	75 % of control	90 % of control	79 % of control	83 % of control

Reference: article PMC9030254, “Target Hopping from Protein Kinases to PXR: Identification of Small-Molecule Protein Kinase Inhibitors as Selective Modulators of Pregnane X Receptor from TüKIC Library” (Cells, 2022)
